# According to ChEMBL document CHEMBL3885861, “Open TG-GATES”:
# Species on record: Rattus norvegicus
# Test: Open TG-GATES - Regimen: Daily Repeat
# Format: toxicity, organism-based, Sprague-Dawley
# Design: regimen Daily Repeat, gender Male, age 6 weeks
# Settings: in vivo, po, route gavage; for APTT / Bas / Eos / Fbg / Hb / Ht / Lym / MCH / MCHC / Mono / Neu / Plat / RBC / Ret: tissue Blood; for KIDNEY_L / KIDNEY_R / KIDNEY_TOTAL: tissue Kidney; for LIVER: tissue Liver; for ALP / ALT / AST / BUN / CRE / Ca / Cl / DBIL / GLC / IP / K / LDH / Na / PL / RALB / TBIL / TC / TG / TP / gamma-GTP: tissue Plasma
# [1] = 10 mg/kg, 72 h, dose level Middle, time 3 day
# [2] = 10 mg/kg, […], dose level Middle, time 7 day
# [3] = 10 mg/kg, […], dose level Middle, time 14 day
# [4] = 10 mg/kg, […], dose level Middle, time 28 day
# [5] = 30 mg/kg, 72 h, dose level High, time 3 day
# [6] = 30 mg/kg, […], dose level High, time 7 day
# [7] = 30 mg/kg, […], dose level High, time 14 day
# [8] = 30 mg/kg, […], dose level High, time 28 day
compound,measurement,setting,value
O=C(CCCN1CCC(O)(c2ccc(Cl)cc2)CC1)c1ccc(F)cc1 [HALOPERIDOL],TERMINAL_BW,[1],211.5 g
same,APTT,[1],16 s
same,Bas,[1],0%
same,Eos,[1],0.6%
same,Fbg,[1],205.8 mg/dL
same,Hb,[1],14.8 g/dL
same,Ht,[1],44.6%
same,Lym,[1],81.4%
same,MCH,[1],21.3 pg
same,MCHC,[1],33.3%
same,Mono,[1],5.8%
same,Neu,[1],12.2%
same,Plat,[1],127.9 x10_4/uL
same,RBC,[1],695.4 x10_4/ul
same,Ret,[1],4.6%
same,KIDNEY_L,[1],0.9 g
same,KIDNEY_R,[1],0.9 g
same,KIDNEY_TOTAL,[1],1.8 g
same,LIVER,[1],10.3 g
same,ALP,[1],873.2 IU/L
same,ALT,[1],41 IU/L
same,AST,[1],64 IU/L
same,BUN,[1],22.2 mg/dL
same,CRE,[1],0.5 mg/dL
same,Ca,[1],11.3 mg/dL
same,Cl,[1],106.2 meq/L
same,DBIL,[1],0.002 mg/dL
same,GLC,[1],180 mg/dL
same,IP,[1],7.8 mg/dL
same,K,[1],4.7 meq/L
same,LDH,[1],95 IU/L
same,Na,[1],138.8 meq/L
same,PL,[1],177.8 mg/dL
same,RALB,[1],4.2 g/dL
same,TBIL,[1],0.2 mg/dL
same,TC,[1],78.2 mg/dL
same,TG,[1],156.2 mg/dL
same,TP,[1],6.2 g/dL
same,gamma-GTP,[1],1.2 IU/L
same,TERMINAL_BW,[2],234.1 g
same,TERMINAL_BW,[3],281.3 g
same,TERMINAL_BW,[4],341 g
same,APTT,[2],16.8 s
same,Bas,[2],0%
same,Eos,[2],0.4%
same,Fbg,[2],215.6 mg/dL
same,Hb,[2],15 g/dL
same,Ht,[2],44.6%
same,Lym,[2],75.4%
same,MCH,[2],21 pg
same,MCHC,[2],33.7%
same,Mono,[2],5%
same,Neu,[2],19.2%
same,Plat,[2],99.5 x10_4/uL
same,RBC,[2],717.6 x10_4/ul
same,Ret,[2],3.7%
same,APTT,[3],16.3 s
same,Bas,[3],0%
same,Eos,[3],0.2%
same,Fbg,[3],212.2 mg/dL
same,Hb,[3],14.7 g/dL
same,Ht,[3],43.9%
same,Lym,[3],75.6%
same,MCH,[3],20.3 pg
same,MCHC,[3],33.5%
same,Mono,[3],4.2%
same,Neu,[3],20%
same,Plat,[3],93.8 x10_4/uL
same,RBC,[3],722.2 x10_4/ul
same,Ret,[3],3.6%
same,APTT,[4],16 s
same,Bas,[4],0%
same,Eos,[4],0.4%
same,Fbg,[4],220.6 mg/dL
same,Hb,[4],15.3 g/dL
same,Ht,[4],45.8%
same,Lym,[4],78.8%
same,MCH,[4],19.5 pg
same,MCHC,[4],33.5%
same,Mono,[4],5.6%
same,Neu,[4],15.2%
same,Plat,[4],95.6 x10_4/uL
same,RBC,[4],788.6 x10_4/ul
same,Ret,[4],2.6%
same,KIDNEY_L,[2],1 g
same,KIDNEY_R,[2],1 g
same,KIDNEY_TOTAL,[2],1.9 g
same,KIDNEY_L,[3],1.1 g
same,KIDNEY_R,[3],1.1 g
same,KIDNEY_TOTAL,[3],2.2 g
same,KIDNEY_L,[4],1.2 g
same,KIDNEY_R,[4],1.2 g
same,KIDNEY_TOTAL,[4],2.4 g
same,LIVER,[2],10.8 g
same,LIVER,[3],12.3 g
same,LIVER,[4],13.4 g
same,ALP,[2],930.4 IU/L
same,ALT,[2],38.6 IU/L
same,AST,[2],66.8 IU/L
same,BUN,[2],20.2 mg/dL
same,CRE,[2],0.6 mg/dL
same,Ca,[2],11.4 mg/dL
same,Cl,[2],106.6 meq/L
same,DBIL,[2],0.004 mg/dL
same,GLC,[2],179.6 mg/dL
same,IP,[2],7.3 mg/dL
same,K,[2],4.6 meq/L
same,LDH,[2],84.8 IU/L
same,Na,[2],139 meq/L
same,PL,[2],174.4 mg/dL
same,RALB,[2],4 g/dL
same,TBIL,[2],0.3 mg/dL
same,TC,[2],84.8 mg/dL
same,TG,[2],123.8 mg/dL
same,TP,[2],6.2 g/dL
same,gamma-GTP,[2],1.8 IU/L
same,ALP,[3],773.8 IU/L
same,ALT,[3],29.2 IU/L
same,AST,[3],62.8 IU/L
same,BUN,[3],19.8 mg/dL
same,CRE,[3],0.4 mg/dL
same,Ca,[3],10.7 mg/dL
same,Cl,[3],107 meq/L
same,DBIL,[3],0.036 mg/dL
same,GLC,[3],184.2 mg/dL
same,IP,[3],7.8 mg/dL
same,K,[3],4.5 meq/L
same,LDH,[3],83.2 IU/L
same,Na,[3],138.4 meq/L
same,PL,[3],156 mg/dL
same,RALB,[3],4 g/dL
same,TBIL,[3],0.3 mg/dL
same,TC,[3],70.2 mg/dL
same,TG,[3],146 mg/dL
same,TP,[3],6.2 g/dL
same,gamma-GTP,[3],1.6 IU/L
same,ALP,[4],603.8 IU/L
same,ALT,[4],32.4 IU/L
same,AST,[4],66.8 IU/L
same,BUN,[4],20.4 mg/dL
same,CRE,[4],0.6 mg/dL
same,Ca,[4],10.7 mg/dL
same,Cl,[4],107.8 meq/L
same,DBIL,[4],0.062 mg/dL
same,GLC,[4],172.8 mg/dL
same,IP,[4],6.4 mg/dL
same,K,[4],4.7 meq/L
same,LDH,[4],72 IU/L
same,Na,[4],139.4 meq/L
same,PL,[4],141 mg/dL
same,RALB,[4],4.2 g/dL
same,TBIL,[4],0.3 mg/dL
same,TC,[4],63.6 mg/dL
same,TG,[4],133.4 mg/dL
same,TP,[4],6.7 g/dL
same,gamma-GTP,[4],1.6 IU/L
same,TERMINAL_BW,[5],179.6 g
same,APTT,[5],15.7 s
same,Bas,[5],0%
same,Eos,[5],1%
same,Fbg,[5],192.8 mg/dL
same,Hb,[5],15.9 g/dL
same,Ht,[5],47.3%
same,Lym,[5],83.4%
same,MCH,[5],21.2 pg
same,MCHC,[5],33.6%
same,Mono,[5],5%
same,Neu,[5],10.6%
same,Plat,[5],127.3 x10_4/uL
same,RBC,[5],751.8 x10_4/ul
same,Ret,[5],2.4%
same,KIDNEY_L,[5],0.8 g
same,KIDNEY_R,[5],0.9 g
same,KIDNEY_TOTAL,[5],1.7 g
same,LIVER,[5],7.7 g
same,ALP,[5],686.4 IU/L
same,ALT,[5],29.4 IU/L
same,AST,[5],62 IU/L
same,BUN,[5],28.2 mg/dL
same,CRE,[5],0.6 mg/dL
same,Ca,[5],11.2 mg/dL
same,Cl,[5],108.6 meq/L
same,DBIL,[5],0.002 mg/dL
same,GLC,[5],162.2 mg/dL
same,IP,[5],8.5 mg/dL
same,K,[5],4.7 meq/L
same,LDH,[5],176.8 IU/L
same,Na,[5],142.2 meq/L
same,PL,[5],159.6 mg/dL
same,RALB,[5],4.4 g/dL
same,TBIL,[5],0.2 mg/dL
same,TC,[5],88.2 mg/dL
same,TG,[5],80.8 mg/dL
same,TP,[5],6.2 g/dL
same,gamma-GTP,[5],1.2 IU/L
same,TERMINAL_BW,[6],213.8 g
same,TERMINAL_BW,[7],254.9 g
same,TERMINAL_BW,[8],329.7 g
same,APTT,[6],16.7 s
same,Bas,[6],0%
same,Eos,[6],0.4%
same,Fbg,[6],189.6 mg/dL
same,Hb,[6],15.4 g/dL
same,Ht,[6],46.2%
same,Lym,[6],82%
same,MCH,[6],21 pg
same,MCHC,[6],33.4%
same,Mono,[6],6.8%
same,Neu,[6],10.8%
same,Plat,[6],89.5 x10_4/uL
same,RBC,[6],735.6 x10_4/ul
same,Ret,[6],2.5%
same,APTT,[7],15.9 s
same,Bas,[7],0%
same,Eos,[7],0.4%
same,Fbg,[7],195.2 mg/dL
same,Hb,[7],15.4 g/dL
same,Ht,[7],46.4%
same,Lym,[7],84.6%
same,MCH,[7],20 pg
same,MCHC,[7],33.3%
same,Mono,[7],3.4%
same,Neu,[7],11.6%
same,Plat,[7],94.6 x10_4/uL
same,RBC,[7],773.4 x10_4/ul
same,Ret,[7],2.9%
same,APTT,[8],16.7 s
same,Bas,[8],0%
same,Eos,[8],0.6%
same,Fbg,[8],210.2 mg/dL
same,Hb,[8],15.2 g/dL
same,Ht,[8],45.1%
same,Lym,[8],84.4%
same,MCH,[8],19.4 pg
same,MCHC,[8],33.6%
same,Mono,[8],3.6%
same,Neu,[8],11.4%
same,Plat,[8],96.5 x10_4/uL
same,RBC,[8],782.8 x10_4/ul
same,Ret,[8],2.6%
same,KIDNEY_L,[6],0.9 g
same,KIDNEY_R,[6],0.9 g
same,KIDNEY_TOTAL,[6],1.8 g
same,KIDNEY_L,[7],1 g
same,KIDNEY_R,[7],1.1 g
same,KIDNEY_TOTAL,[7],2.1 g
same,KIDNEY_L,[8],1.2 g
same,KIDNEY_R,[8],1.2 g
same,KIDNEY_TOTAL,[8],2.4 g
same,LIVER,[6],10.3 g
same,LIVER,[7],10.8 g
same,LIVER,[8],12.8 g
same,ALP,[6],1009 IU/L
same,ALT,[6],38.8 IU/L
same,AST,[6],67.2 IU/L
same,BUN,[6],25.4 mg/dL
same,CRE,[6],0.5 mg/dL
same,Ca,[6],11.8 mg/dL
same,Cl,[6],106 meq/L
same,DBIL,[6],0.008 mg/dL
same,GLC,[6],164.2 mg/dL
same,IP,[6],7.6 mg/dL
same,K,[6],4.6 meq/L
same,LDH,[6],154.4 IU/L
same,Na,[6],140 meq/L
same,PL,[6],175.6 mg/dL
same,RALB,[6],4.1 g/dL
same,TBIL,[6],0.2 mg/dL
same,TC,[6],77.6 mg/dL
same,TG,[6],113.6 mg/dL
same,TP,[6],6.1 g/dL
same,gamma-GTP,[6],1.6 IU/L
same,ALP,[7],689.4 IU/L
same,ALT,[7],30.2 IU/L
same,AST,[7],65 IU/L
same,BUN,[7],24 mg/dL
same,CRE,[7],0.5 mg/dL
same,Ca,[7],11 mg/dL
same,Cl,[7],105.6 meq/L
same,DBIL,[7],0.012 mg/dL
same,GLC,[7],179.4 mg/dL
same,IP,[7],7.8 mg/dL
same,K,[7],4.7 meq/L
same,LDH,[7],178.6 IU/L
same,Na,[7],138.8 meq/L
same,PL,[7],162.4 mg/dL
same,RALB,[7],3.9 g/dL
same,TBIL,[7],0.3 mg/dL
same,TC,[7],76.2 mg/dL
same,TG,[7],107.4 mg/dL
same,TP,[7],6.1 g/dL
same,gamma-GTP,[7],1.2 IU/L
same,ALP,[8],528.8 IU/L
same,ALT,[8],31.6 IU/L
same,AST,[8],65.4 IU/L
same,BUN,[8],25.6 mg/dL
same,CRE,[8],0.5 mg/dL
same,Ca,[8],11.1 mg/dL
same,Cl,[8],107 meq/L
same,DBIL,[8],0.076 mg/dL
same,GLC,[8],177.8 mg/dL
same,IP,[8],7.6 mg/dL
same,K,[8],4.7 meq/L
same,LDH,[8],138.6 IU/L
same,Na,[8],140.2 meq/L
same,PL,[8],148.6 mg/dL
same,RALB,[8],3.9 g/dL
same,TBIL,[8],0.2 mg/dL
same,TC,[8],67 mg/dL
same,TG,[8],136.8 mg/dL
same,TP,[8],6.3 g/dL
same,gamma-GTP,[8],2.2 IU/L
